Measured values taken from ChEMBL document CHEMBL2028040, “Malaria Box”.

How the values were obtained:
[1] = test system: Plasmodium falciparum; test: MMV: Inhibition of Plasmodium falciparum 3D7 (EC50).; type: functional, organism-based
[2] = test system: Plasmodium falciparum; test: MMV: Inhibition of Plasmodium falciparum 3D7 at 5uM compound concentration.; type: functional
[3] = test system: Trypanosoma brucei rhodesiense; test: MMV: Inhibition of Trypanosoma brucei rhodesiense (STIB 900) (HAT in vitro).; type: functional, organism-based
[4] = test system: Leishmania infantum; test: MMV: Inhibition of Leishmania infantum (MHOM/MA/BE/67) in vitro.; type: functional, organism-based
[5] = test system: Trypanosoma cruzi; test: MMV: Inhibition of Trypanosoma cruzi (Tulahuen C4 LacZ) (Chagas in vitro).; type: functional, organism-based
[6] = MMV: Cytotoxicity against human fibroblasts (MRC-5) cells.; details: MRC-5 cells (human fibroblasts)
[7] = test system: Plasmodium falciparum; test: MMV: Inhibition of Plasmodium falciparum K1 (EC50).; type: functional, organism-based
[8] = test system: Trypanosoma brucei brucei; test: MMV: Inhibition of Trypanosoma brucei brucei (Squib 427) (HAT in vitro).; type: functional, organism-based

Row | SMILES | EC50 [1] | inhibition at 5 µM [2] | IC50 [3] | IC50 [4] | IC50 [5] | IC50 [6] | EC50 [7] | IC50 [8]
1 | Cc1cc(Nc2ccc(C)c(Cl)c2)n2nc(C(F)(F)F)nc2n1 | 0.00671 µM | 98% | 15.9 µM | > 32 µM | 22.9 µM | > 32 µM | 0.0141 µM | > 32 µM
2 | Cc1cc(NCCN2CCCCC2)c2ccc3ccccc3c2n1 | 0.3 µM | 99% | 1 µM | 0.841 µM | 3.27 µM | 16.1 µM | 0.569 µM | 0.97 µM
3 | CN(C)CCCNCc1ccc(-c2ccc(F)c(Cl)c2)o1 | 0.876 µM | 96% | < 0.125 µM | 4.15 µM | 3.85 µM | 17.3 µM | 0.763 µM | 0.185 µM
4 | CN(C)c1ccc(C=Cc2nc(=O)c3ccccc3o2)cc1 | 0.0515 µM | 96% | 3.06 µM | > 32 µM | > 32 µM | > 32 µM | 0.0272 µM | > 32 µM
5 | O=C1c2ccc3c4c(ccc(c24)C(=O)N1CCCCO)C(=O)N(CCCCO)C3=O | 0.795 µM | 97% | 1 µM | 1.01 µM | 2.07 µM | 13.8 µM | 0.858 µM | 2.84 µM
6 | CCOC(=O)C1=C(C)N=c2sc(=Cc3ccccc3O)c(=O)n2C1c1ccc(OC)c2ccccc12 (centres undefined) | 1.51 µM | 97% | 7.36 µM | 16.2 µM | > 32 µM | > 32 µM | 1.17 µM | 16.9 µM
7 | CC(C)(C)CC(C)(C)NCC(O)COc1ccc2c(c1)CCC2 (centres undefined) | – | 78% | 1.02 µM | 4.76 µM | 15.7 µM | 26.1 µM | 1.08 µM | 3.49 µM
8 | CCCCCn1c(=N)n(CC(O)COc2cccc(C)c2)c2ccccc21 (centres undefined) | – | 96% | 0.986 µM | 3.41 µM | 4.21 µM | 15.5 µM | 1.25 µM | 0.923 µM
9 | O=C(Nc1nc(-c2ccccn2)cs1)c1ccccc1Br | 1.36 µM | 97% | 0.376 µM | 1.59 µM | 0.26 µM | – | 1.58 µM | 1.04 µM
10 | CCOc1c(Cl)cc(CNC(C)C(O)c2ccccc2)cc1OC (centres undefined) | – | 98% | 4.09 µM | 16.6 µM | > 32 µM | > 32 µM | 0.706 µM | 9.51 µM
11 | COc1ccc2nc(N)nc(C)c2c1 | – | 63% | 16.3 µM | > 32 µM | > 32 µM | > 32 µM | 0.3 µM | 18.4 µM
12 | CCN(CC)CCn1c(=N)n(CC(O)c2ccc(Cl)c(Cl)c2)c2ccccc21 (centres undefined) | – | 97% | 1.02 µM | 1 µM | 3.82 µM | 16.1 µM | 0.575 µM | 0.908 µM
13 | CCC(C)NCC(O)(c1ccc(Cl)cc1)c1ccc(Cl)cc1 (centres undefined) | – | 98% | 4.03 µM | 16 µM | 15 µM | > 32 µM | 0.398 µM | 4.1 µM
14 | CCOC(=O)C1(Cc2ccccc2)CCN(Cc2cccc(OC)c2O)CC1 | – | 95% | 15.3 µM | > 32 µM | 17.1 µM | > 32 µM | 1 µM | 16.7 µM
15 | CCc1ccc(CNCC(O)c2ccccc2)cc1 (centres undefined) | – | 97% | 4.03 µM | 25.4 µM | > 32 µM | > 32 µM | 0.65 µM | 13.3 µM
16 | CC(O)(c1ccc(Cl)cc1)C(CN1CCCCC1)c1ccccc1 (centres undefined) | – | 94% | 14.8 µM | > 32 µM | > 32 µM | > 32 µM | 0.576 µM | 16.1 µM
17 | COc1ccc(CN2CCCC(C(=O)c3ccc(C(F)(F)F)cc3)C2)c(O)c1 (centres undefined) | – | 97% | > 32 µM | > 32 µM | > 32 µM | > 32 µM | 0.728 µM | > 32 µM
18 | COc1ccc(C(=O)NC(c2ccccc2Cl)c2cc(Cl)c3cccnc3c2O)cc1 (centres undefined) | – | 96% | > 32 µM | > 32 µM | > 32 µM | > 32 µM | 0.703 µM | > 32 µM
19 | Oc1ccc(Br)cc1CN1CCN(Cc2ccc(Cl)cc2)CC1 | – | 97% | 14.9 µM | > 32 µM | 8.28 µM | > 32 µM | 0.899 µM | > 32 µM
